From US20230041563A1, “N-(1,3,4-OXADIAZOL-2-YL)ARYLCARBOXAMIDES OR SALTS THEREOF, PREPARATION METHODS, HERBICIDAL COMPOSITIONS AND USES THEREOF” (priority 2018, published 2023)

Experiments:
[1] = test system: Abutilon theophrasti; assay: Weeding effect in post-emergence stage (greenhouse pot spray); assay type: in vivo
Summary of the method: (§1)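 Read-out: fresh-weight growth control rate scored 3 weeks after spraying, mean of three replicates. Plants treated at 2-3 leaf stage by spray tower, doses 500-15 g a.i./ha (500, 250, 125, 60, 15).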

[2] = test system: Digitaria sanguinalis; assay: as above; assay type: in vivo
Summary of the method: as §1

[3] = test system: Echinochloa crusgalli; assay: as above; assay type: in vivo
Summary of the method: as §1

[4] = test system: Setaria viridis; assay: as above; assay type: in vivo; conditions: Table 3, dose 60 g a.i./ha
Summary of the method: as §1

[5] = test system: Amaranthus retroflexus; assay: as above; assay type: in vivo
Summary of the method: as §1

[6] = test system: Stellaria media; assay: as above; assay type: in vivo
Summary of the method: as §1

[7] = test system: Indica rice (Huanghuazhan); assay: Safety test of control experiments on rice; assay type: in vivo; conditions: Dose 250 g a.i./ha
Excerpt: (§2) The activity level criteria for plant damage (i.e., growth control rate) are as follows: Comparative Experiments: [table]

[8] = test system: Japonica rice (Huaidao No. 5); assay: Safety test of control experiments on rice; assay type: in vivo; conditions: Dose 250 g a.i./ha
Excerpt: as §2

[9] = test system: rice and Echinochloa crusgali; assay: Herbicide selection index between rice and Echinochloa crusgali; assay type: in vivo; conditions: average dose causing 10% phytotoxicity to rice divided by average dose causing 90% control efficiency to Echinochloa crusgali
[10] = test system: Abutilon theophrasti; assay: Post-emergence control experiment of R configuration compound activity (weeds 4-5 leaf stage, 25 days); assay type: in vivo; conditions: Abutilon theophrasti, post-emergence; read-out: Ablation theophrasti (30 g a.i./ha) inhibition rate
Experimental: (§3) Experiment on weeding effect in post-emergence stage: after 3-4 weeks of sowing, the test plants were treated in the 1.5-2 leaf stage of the directly sowed rice Longyang 16, and the 4-5 leaf stage of weeds. After the application of the compounds of the present invention, the plants were cultured for 25 days in the greenhouse, and then the experimental results of the weeding were counted.

[11] = test system: Digitaria sanguinalis; assay: as above; assay type: in vivo; conditions: Digitaria sanguinalis, post-emergence; read-out: Digitaria sanguinalis (30 g a.i./ha) inhibition rate
Experimental: as §3

[12] = test system: Green Setaria viridis; assay: as above; assay type: in vivo; conditions: Setaria viridis, post-emergence
Experimental: as §3

[13] = test system: Leptochloa chinensis; assay: as above; assay type: in vivo; conditions: Dinebra chinensis, post-emergence
Experimental: as §3

[14] = test system: Rice (Longyang 16); assay: Post-emergence control experiment of R configuration compound activity (directly sowed rice 1.5-2 leaf stage, 25 days); assay type: in vivo
Experimental: as §3
Longyang 16 is a representative and important long-grain fragrant rice in Northeast China. Long-grain fragrant rice is more sensitive to herbicides, especially to HPPD herbicides such as Mesotrione, Benzobicylon and the like, which are prone to causing phytotoxicity.

[15] = test system: Echinochloa crusgali; assay: Transplanted rice safety evaluation and weed control effect evaluation in rice field; assay type: in vivo; conditions: Table 7, dose 125 g a.i./ha, 14 days after treatment
Summary of the method: (§4)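 Paddy-soil pots, seeds sown and flooded (0.5-1 cm, then 3-4 cm water); Sagittaria grown from tubers. WP or SC dilutions dripped on at 0.5-leaf stage (Sagittaria at primary leaf). Visual 0-5 scoring of weeds at 14 days, rice at 21 days.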

[16] = test system: Monochoria vaginalis; assay: as above; assay type: in vivo; conditions: Table 7, dose 125 g a.i./ha, 14 days after treatment
Summary of the method: as §4

[17] = test system: Scirpus juncoides; assay: as above; assay type: in vivo; conditions: Table 7, dose 125 g a.i./ha, 14 days after treatment
Summary of the method: as §4

[18] = test system: Rice; assay: as above; assay type: in vivo, rice (japonica rice/Indica rice); conditions: Table 7, dose 125 g a.i./ha, 21 days after treatment
Summary of the method: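 Japonica and Indica rice at 3-leaf stage transplanted into flooded paddy soil (3-4 cm water). Compound applied 5 days after transplanting. Weeds scored visually on 0-5 scale at 14 days; rice injury at 21 days.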

[19] = test system: gramineous weed (Echinochloa crusgali, Leptochloa chinensis or Digitaria sanguinalis); assay: Post-emergence activity on gramineous weed, comparison between compounds; assay type: in vivo; conditions: at low doses; versus Compound 1-2
Excerpt: Experiment on weeding effect in post-emergence stage: monocotyledonous and dicotyledonous weed seeds (Descurainia sophia, Capsella bursa-pastoris, Abutilon theophrasti, Galium aparine, Stellaria media, Lithospermum arvense, rorippa indica, Alopecurus aequalis, Beckmannia syzigachne, Sclerochloa dura, Phleum paniculatum, Bromus japonicus, Aegilops tauschii, Phalaris arundinacea, Amaranthus retroflexus, Chenopodiaceae, Commelina communis, Sonchus arvensis, convolvulus arvensis, Cirsium setosum, Solanum nigrum, Acalypha australis, Digitaria sanguinalis, Echinochloa crusgalli, Setaria viridis, Setaria glauca, Leptochloa chinensis, Monochoria vaginalis, Sagittaria trifolia, Scirpus juncoides, Cyperus rotundus, Cyperus iria, Cyperus difformis, Fimbristylis, Portulaca oleracea, Xanthium sibiricum, Pharbitis nil) and major crop seeds (wheat, corn, rice, soybean, cotton, oilseed rape, millet, sorghum, potato, sesame, ricinus) were placed in plastic pots filled with soil, then covered with 0.5-2 cm of soil, allowed to grow in a good greenhouse environment. After 2 weeks of sowing, the test plants were treated in the 2 to 3 leaf stage. […] After the application, the plants were cultured for 3 weeks in the greenhouse, and then the experimental results of the weeding were counted. […]

CCC[S+]([O-])c1c(C(F)(F)F)ccc(C(=O)Nc2nnc(C)o2)c1F (stereo not drawn) [Compound 1-8]
Abutilion theophrasti (activity level) ([1]; Table 2, dose 60 g a.i./ha): 5 (Level 5: growth control rate is above 85%)
Abutilion theophrasti (activity level) ([1]; Table 2, dose 125 g a.i./ha): 5 (Level 5: growth control rate is above 85%)
Abutilon theophrasti (activity level) ([1]; Table 3, dose 60 g a.i./ha): 5 (Level 5: growth control rate is above 85%)
Digitaria sanguinalis (activity level) ([2]; Table 2, dose 60 g a.i./ha): 5 (Level 5: growth control rate is above 85%)
Digitaria sanguinalis (activity level) ([2]; Table 2, dose 125 g a.i./ha): 5 (Level 5: growth control rate is above 85%)
Digitaria sanguinahs (activity level) ([2]; Table 3, dose 60 g a.i./ha): 5 (Level 5: growth control rate is above 85%)
Echinochloa crusgah (activity level) ([3]; Table 2, dose 60 g a.i./ha): 5 (Level 5: growth control rate is above 85%)
Echinochloa crusgah (activity level) ([3]; Table 2, dose 125 g a.i./ha): 5 (Level 5: growth control rate is above 85%)
Echinochloa crusgali (activity level) ([3]; Table 3, dose 60 g a.i./ha): 5 (Level 5: growth control rate is above 85%)
Setaria viridis (activity level) [4]: 5 (Level 5: growth control rate is above 85%)
Amaranthus retroflexus (activity level) ([5]; Table 2, dose 60 g a.i./ha): 5 (Level 5: growth control rate is above 85%)
Amaranthus retroflexus (activity level) ([5]; Table 2, dose 125 g a.i./ha): 5 (Level 5: growth control rate is above 85%)
Stellaria media (activity level) ([6]; Table 2, dose 60 g a.i./ha): 5 (Level 5: growth control rate is above 85%)
Stellaria media (activity level) ([6]; Table 2, dose 125 g a.i./ha): 5 (Level 5: growth control rate is above 85%)
Indica rice (Huanghuazhan) (plant damage level) [7]: 0 (Level 0: growth control rate is less than 5%)
Japonica rice (Huaidao No. 5) (plant damage level) [8]: 0 (Level 0: growth control rate is less than 5%)
Selection index between rice and Echinochloa crusgali [9]: >5
inhibition at 30 g/ha [10]: 90%
inhibition at 30 g/ha [11]: 80%
inhibition at 30 g/ha ([12]; read-out: Green Setaria viridis (30 g a.i./ha) inhibition rate): 10%
inhibition at 60 g/ha ([12]; read-out: Green Setaria viridis (60 g a.i./ha) inhibition rate): 90%
inhibition at 60 g/ha ([13]; read-out: Leptochloa chinensis (60 g a.i./ha) inhibition rate): 30%
inhibition at 125 g/ha ([13]; read-out: Leptochloa chinensis (125 g a.i./ha) inhibition rate): 80%
Rice (Longyang 16) (250 g a.i./ha) inhibition rate ([14]; 250 g a.i./ha): 5%
Rice (Longyang 16) (500 g a.i./ha) inhibition rate ([14]; 500 g a.i./ha): 15%
Echinochloa crusgali (activity level) [15]: 5 (Level 5: growth control rate is above 85%)
Monochoria vaginalis (activity level) [16]: 5 (Level 5: growth control rate is above 85%)
Scirpus juncoides (activity level) [17]: 5 (Level 5: growth control rate is above 85%)
Rice (safety level) [18]: 0 (Level 0: growth control rate is less than 5%)
activity on the gramineous weed relative to Compound 1-2 [19]: much more higher
